Data taken from patent US10517889B2, “Modulators of SMAD7 expression” (Ionis Pharmaceuticals, Inc., priority 2017, dated 2019).
Strand notation (5' to 3'): a small letter for the sugar, then the base; units joined by * are phosphorothioate-linked, units joined directly phosphodiester-linked; [ ] holds rarer units or linkages, { } end groups; capitals alone tell only the bases. e = 2'-O-(2-methoxyethyl) (MOE); [5mC] = 5-methylcytosine; d = 2'-deoxy (DNA)

How the values were obtained:
[1] = test system: human SMAD7 mRNA; assay: Dose-dependent inhibition of human SMAD7 mRNA expression in Hep3B cells (Example 3, Study 1 and 2); format: cell-based; settings: electroporation; for % inhibition of SMAD7 mRNA expression: approximately 16 hours
In short: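 Hep3B cells, 20,000 per well, electroporated with antisense oligonucleotide at 0.31, 1.25, 5.00 or 20.00 μM (first series) or 0.74, 2.22, 6.67 or 20.00 μM (second series). After ~16 h, SMAD7 mRNA measured by RT-qPCR (RTS5062), normalised to RIBOGREEN total RNA. Percent inhibition vs untreated cells; IC50 derived.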

[2] = test system: human SMAD7 mRNA; assay: Antisense inhibition of human SMAD7 mRNA expression in Hep3B cells by 5-10-5 MOE gapmers, single concentration, electroporation, RT-PCR (Example 1, Study 1 and 2); format: cell-based; settings: for % Inhibition of SMAD7 mRNA: electroporation with 15,000 nM antisense oligonucleotide (Study 2); for % Inhibition: Study 2, electroporation with 15,000 nM antisense oligonucleotide
In short: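 Hep3B cells (20,000/well) electroporated with 5-10-5 MOE gapmer at 5,000 nM or 15,000 nM for approximately 24 h. SMAD7 mRNA quantified by real-time PCR with primer probe set RTS5062 and normalized to RIBOGREEN total RNA. Values are percent inhibition relative to untreated controls.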

[3] = 5-10-5 MOE gapmers targeting SEQ ID NO: 1 and 2
[4] = electroporation, 15,000 nM antisense oligonucleotide (Study 2), 5-10-5 MOE gapmers targeting SEQ ID NO: 1 and 2
[5] = electroporation, 15,000 nM, approximately 24 hours, relative to untreated control cells, gapmers targeting SEQ ID NO: 1 and 2

Substance	% inhibition of SMAD7 mRNA expression [2, 4] [%]	% Inhibition [2, 3] [%]	also measured
278478 (antisense eA*e[5mC]*eA*eT*eG*dA*d[5mC]*d[5mC]*dT*d[5mC]*d[5mC]*dG*d[5mC]*dA*d[5mC]*eA*e[5mC]*e[5mC]*eA*eT) [compound 278478]	18		% inhibition of SMAD7 mRNA expression ([1]; 312.5 nM, Study 1, relative to untreated control cells): 0%; % inhibition of SMAD7 mRNA expression ([1]; 1250.0 nM, Study 1): 9%; % inhibition of SMAD7 mRNA expression ([1]; 5000.0 nM, Study 1): 19%; % inhibition of SMAD7 mRNA expression ([1]; 20000.0 nM, Study 1): 22%; IC50 ([1]; Study 1 (312.5-20000 nM)): > 20 µM; % Inhibition of SMAD7 mRNA [2, 3]: 54%
771913 (antisense eA*eA*eA*eA*eA*dA*dG*d[5mC]*d[5mC]*dA*dG*dT*dA*dA*dA*eG*eA*e[5mC]*eA*eT) [compound 771913]	11		
771914 (antisense eA*eT*eT*eT*eA*dG*dG*dA*dA*d[5mC]*dA*dA*dG*dG*dG*e[5mC]*eA*eA*eG*e[5mC]) [compound 771914]	34		
771916 (antisense e[5mC]*e[5mC]*eT*eT*e[5mC]*dT*dT*dA*dA*dA*dT*dT*dT*dT*dT*eA*eA*eT*eT*eT) [compound 771916]		0	
771917 (antisense e[5mC]*e[5mC]*eA*eG*eA*d[5mC]*d[5mC]*d[5mC]*d[5mC]*dT*dT*d[5mC]*dT*dT*dA*eA*eA*eT*eT*eT) [compound 771917]			% inhibition of SMAD7 mRNA expression [2, 5]: 22%
771918 (antisense eA*eA*eG*eG*e[5mC]*d[5mC]*dA*d[5mC]*dA*dT*dT*dT*dT*dA*dG*eG*eT*eT*eA*eA) [compound 771918]		12	
771919 (antisense e[5mC]*eA*eA*eT*eG*dG*d[5mC]*dA*d[5mC]*dA*dG*dG*dG*dT*dG*eA*e[5mC]*e[5mC]*eA*eG) [compound 771919]		29	
771920 (antisense eT*eT*eA*eT*eT*dT*dA*dA*dT*dT*dA*d[5mC]*d[5mC]*d[5mC]*dT*eG*e[5mC]*eT*e[5mC]*eA) [compound 771920]	13		% Inhibition of SMAD7 mRNA [2, 3]: 33%
771921 (antisense eT*e[5mC]*e[5mC]*eT*e[5mC]*d[5mC]*d[5mC]*dT*dT*dT*dA*dA*dA*dG*dG*eG*eA*eA*eG*eG) [compound 771921]	14		
771922 (antisense eA*eA*eA*eT*eT*d[5mC]*d[5mC]*dT*dT*dT*dA*dA*dG*dG*dT*eG*eT*eT*eG*e[5mC]) [compound 771922]	29		
771924 (antisense eT*e[5mC]*eG*e[5mC]*eT*dG*dA*dT*dA*dG*dT*dT*dA*dA*d[5mC]*e[5mC]*eT*e[5mC]*eT*eG) [compound 771924]		9	
771925 (antisense eG*eG*e[5mC]*e[5mC]*eT*d[5mC]*dT*d[5mC]*dG*d[5mC]*dT*dG*dA*dT*dA*eG*eT*eT*eA*eA) [compound 771925]			% inhibition of SMAD7 mRNA expression [2, 5]: 10%
771926 (antisense eA*e[5mC]*eA*eA*eA*dG*dG*dT*d[5mC]*dT*dG*dT*dG*dT*dG*eG*eA*e[5mC]*eG*e[5mC]) [compound 771926]		13	
771927 (antisense eG*e[5mC]*e[5mC]*e[5mC]*eA*d[5mC]*dA*dG*d[5mC]*d[5mC]*d[5mC]*dA*d[5mC]*dA*d[5mC]*eG*eA*eG*eT*e[5mC]) [compound 771927]		0	
771928 (antisense e[5mC]*e[5mC]*e[5mC]*e[5mC]*eA*dT*dT*dG*d[5mC]*d[5mC]*dA*d[5mC]*dT*dA*d[5mC]*eA*eG*eA*eG*eA) [compound 771928]	0		% Inhibition of SMAD7 mRNA [2, 3]: 27%
771929 (antisense e[5mC]*eT*eT*eT*e[5mC]*d[5mC]*dA*dG*d[5mC]*dA*dA*dA*dA*d[5mC]*d[5mC]*eA*eT*eT*e[5mC]*eG) [compound 771929]	0		
771930 (antisense e[5mC]*e[5mC]*eA*eG*e[5mC]*d[5mC]*d[5mC]*dA*dG*dA*dA*dA*dA*dA*d[5mC]*eT*eG*e[5mC]*eA*eA) [compound 771930]	26		
771932 (antisense e[5mC]*eG*eA*eG*eG*dT*dG*d[5mC]*d[5mC]*d[5mC]*d[5mC]*d[5mC]*dA*dT*dG*e[5mC]*e[5mC]*eA*eG*eG) [compound 771932]		13	

Substance	% inhibition of SMAD7 mRNA expression [2, 4] [%]	% Inhibition [2, 3] [%]	also measured
771933 (antisense eA*eT*e[5mC]*eG*eA*dG*dG*dT*dG*d[5mC]*d[5mC]*d[5mC]*d[5mC]*d[5mC]*dA*eT*eG*e[5mC]*e[5mC]*eA) [compound 771933]			% inhibition of SMAD7 mRNA expression [2, 5]: 31%
771934 (antisense e[5mC]*eT*eG*eG*eA*dA*dA*dG*dG*dA*dA*dG*dA*d[5mC]*dT*e[5mC]*eG*eA*eG*eG) [compound 771934]		15	
771935 (antisense eG*eG*eA*eA*eG*dG*dA*d[5mC]*dA*d[5mC]*dA*dT*dT*dG*dG*e[5mC]*eA*eT*e[5mC]*eA) [compound 771935]		23	
771936 (antisense eT*eG*eT*eT*eT*d[5mC]*dT*dG*dT*dG*dT*dG*d[5mC]*dA*d[5mC]*eA*eT*eA*e[5mC]*eG) [compound 771936]	36		% Inhibition of SMAD7 mRNA [2, 3]: 32%
771938 (antisense e[5mC]*e[5mC]*eT*eT*e[5mC]*d[5mC]*d[5mC]*dA*dA*dA*dT*dG*d[5mC]*d[5mC]*dT*eG*e[5mC]*e[5mC]*e[5mC]*e[5mC]) [compound 771938]	29		
771940 (antisense eT*e[5mC]*e[5mC]*eT*eG*d[5mC]*dT*dG*d[5mC]*d[5mC]*d[5mC]*d[5mC]*dA*dG*d[5mC]*eA*eG*eG*e[5mC]*eT) [compound 771940]		0	
771941 (antisense eT*e[5mC]*eA*eA*eT*dG*dA*dT*dG*dA*dT*dG*dG*dG*dT*eT*eG*e[5mC]*eA*e[5mC]) [compound 771941]			% inhibition of SMAD7 mRNA expression [2, 5]: 40%
771942 (antisense eG*eT*e[5mC]*eG*eG*dT*d[5mC]*dA*dG*dG*dG*d[5mC]*d[5mC]*dT*dT*eG*e[5mC]*e[5mC]*e[5mC]*eT) [compound 771942]		11	
771943 (antisense eG*eT*eA*eT*eT*dT*dG*dT*dT*dA*dA*d[5mC]*dA*dA*dA*eA*eA*eT*eG*eG) [compound 771943]		0	
771945 (antisense eT*eT*eA*eT*eG*dT*dG*dT*d[5mC]*dT*d[5mC]*dA*dA*dA*dT*eA*eG*eA*eT*eG) [compound 771945]	0		
771946 (antisense eG*eG*eG*e[5mC]*eT*dA*d[5mC]*d[5mC]*dT*dT*dA*dA*d[5mC]*dA*dA*eA*eG*e[5mC]*eT*eT) [compound 771946]	47		
771948 (antisense e[5mC]*eA*e[5mC]*e[5mC]*e[5mC]*dA*dG*d[5mC]*dT*d[5mC]*dT*d[5mC]*dA*dA*dA*eT*e[5mC]*eA*eG*eT) [compound 771948]		0	
771949 (antisense eA*eG*eA*eT*e[5mC]*dT*dT*dT*d[5mC]*dA*dA*d[5mC]*dT*dG*dG*eA*eT*eG*eG*eA) [compound 771949]			% inhibition of SMAD7 mRNA expression [2, 5]: 26%
771950 (antisense eA*eT*eG*e[5mC]*eA*dA*dA*dG*dG*dG*dA*d[5mC]*d[5mC]*d[5mC]*dT*eT*eA*eA*eT*eA) [compound 771950]		0	
771951 (antisense e[5mC]*eT*eG*e[5mC]*eA*dG*dA*dG*d[5mC]*dA*d[5mC]*dA*dG*dA*dT*eG*e[5mC]*eA*eA*eA) [compound 771951]		9	
771952 (antisense eT*e[5mC]*eT*eT*e[5mC]*dT*d[5mC]*dT*dG*d[5mC]*dA*dG*dA*dG*d[5mC]*eA*e[5mC]*eA*eG*eA) [compound 771952]	0		% Inhibition of SMAD7 mRNA [2, 3]: 26%
771953 (antisense eT*e[5mC]*eA*e[5mC]*e[5mC]*dA*dG*d[5mC]*dT*d[5mC]*dA*dT*d[5mC]*dT*d[5mC]*eT*e[5mC]*eA*eG*eG) [compound 771953]	42		
771954 (antisense e[5mC]*eT*eA*eG*eA*dA*dT*dG*dA*dA*dG*dA*d[5mC]*dA*d[5mC]*e[5mC]*e[5mC]*eG*e[5mC]*e[5mC]) [compound 771954]	0		
